Results as given in ChEMBL document CHEMBL6177960, “Rational design, optimization, and biological evaluation of novel pyrrolo-pyridone derivatives as potent and orally active Cbl-b inhibitors” (Eur J Med Chem, 2025).
Each block holds one compound with its values, some of them ahead of it.

Legend:
[1] = test system: 4T1; test: Antitumor activity against mouse 4T1 cells implanted in female BALB/C mouse model assessed as tumor growth inhibition at 30 mg/kg, po relative to control; conditions: 4T1, po, read-out: TGI
[2] = in vivo; conditions: male, CD-1(ICR), mouse, po, 10 mg/kg
Description: AUCinfinity in male CD-1(ICR) mouse at 10 mg/kg, po measured after 1440 mins by LC-MS/MS analysis

[3] = Inhibition of immunosuppressive activity in PGE2-induced human T cells assessed as increase in IL2 production preincubated with PGE2 for 15 mins followed by compound administration for 60 mins and measured after 48 hrs of anti-human CD28 antibody by ELISA; conditions: T-cell
[4] = in vivo; conditions: male, CD-1(ICR), mouse, po, 10 mg/kg; remark: listed apart in the source
[5] = Protein binding in Sprague-Dawley rat plasma assessed as unbound fraction at 5 uM incubated for 5 hrs by equilibrium dialysis based LC-MS analysis
[6] = in vivo; conditions: male, CD-1(ICR), mouse, iv, 1 mg/kg
Description: Volume of distribution at steady state in male CD-1(ICR) mouse at 1 mg/kg, iv measured after 1440 mins by LC-MS/MS analysis

[7] = Plasma protein binding in Sprague-Dawley rat at 5 uM incubated for 5 hrs by equilibrium dialysis based LC-MS analysis
[8] = Inhibition of immunosuppressive activity in PGE2-induced human T cells assessed as increase in cell proliferation preincubated with PGE2 for 15 mins followed by compound administration for 60 mins and measured after 72 hrs of anti-human CD28 antibody by flow cytometric analysis
[9] = Plasma protein binding in cynomolgus monkey at 5 uM incubated for 5 hrs by equilibrium dialysis based LC-MS analysis
[10] = in vivo; conditions: male, CD-1(ICR), mouse, iv, 1 mg/kg; remark: listed apart in the source
Description: AUCinfinity in male CD-1(ICR) mouse at 1 mg/kg, iv measured after 1440 mins by LC-MS/MS analysis

[11] = Toxicity in female BALB/C mouse model implanted with mouse CT26 cells assessed as effect on body weight at 30 mg/kg, po administered via gavage once daily and measured after 14 days; conditions: in vivo, 336 h
[12] = test system: CT26; test: Antitumor activity against mouse CT26 cells implanted in female BALB/C mouse model assessed as tumor growth inhibition at 10 mg/kg, po administered via gavage once daily and measured after 14 days relative to control; conditions: 336 h, read-out: TGI
[13] = in vitro; conditions: dog, hepatocytes
[14] = Plasma protein binding in Beagle dog at 5 uM incubated for 5 hrs by equilibrium dialysis based LC-MS analysis
[15] = in vivo; conditions: male, CD-1(ICR), mouse, iv, 1 mg/kg; remark: listed apart in the source
Description: Apparent volume of distribution in male CD-1(ICR) mouse at 1 mg/kg, iv measured after 1440 mins by LC-MS/MS analysis

[16] = in vivo; conditions: male, CD-1(ICR), mouse, iv, 1 mg/kg; remark: listed apart in the source
Description: C0 in male CD-1(ICR) mouse at 1 mg/kg, iv measured after 1440 mins by LC-MS/MS analysis

[17] = in vivo; conditions: male, CD-1(ICR), mouse, iv, 1 mg/kg; remark: listed apart in the source
Description: Half-life in male CD-1(ICR) mouse at 1 mg/kg, iv measured after 1440 mins by LC-MS/MS analysis

[18] = Plasma protein binding in human at 5 uM incubated for 5 hrs by equilibrium dialysis based LC-MS analysis
[19] = in vitro; conditions: rat, hepatocytes
[20] = test system: CT26; test: Antitumor activity against mouse CT26 cells implanted in female BALB/C mouse model assessed as tumor growth inhibition at 30 mg/kg, po administered via gavage once daily and measured after 14 days relative to control; conditions: 336 h, read-out: TGI
[21] = in vivo; conditions: male, CD-1(ICR), mouse, iv, 1 mg/kg; remark: listed apart in the source
Description: Clearance in male CD-1(ICR) mouse at 1 mg/kg, iv measured after 1440 mins by LC-MS/MS analysis

[22] = in vitro; conditions: human, hepatocytes
[23] = Protein binding in CD-1 mouse plasma assessed as unbound fraction at 5 uM incubated for 5 hrs by equilibrium dialysis based LC-MS analysis
[24] = in vivo; conditions: male, CD-1(ICR), mouse, po, 10 mg/kg; remark: listed apart in the source
Description: Half-life in male CD-1(ICR) mouse at 10 mg/kg, po measured after 1440 mins by LC-MS/MS analysis

[25] = in vitro; conditions: dog, hepatocytes; remark: listed apart in the source
[26] = Inhibition of immunosuppressive activity in PGE2-induced human T cells assessed as increase in IFNgamma production preincubated with PGE2 for 15 mins followed by compound administration for 60 mins and measured after 48 hrs of anti-human CD28 antibody by ELISA; conditions: T-cell
[27] = Protein binding in human plasma assessed as unbound fraction at 5 uM incubated for 5 hrs by equilibrium dialysis based LC-MS analysis
[28] = Plasma protein binding in CD-1 mouse at 5 uM incubated for 5 hrs by equilibrium dialysis based LC-MS analysis
[29] = in vivo; conditions: male, CD-1(ICR), mouse, po, 10 mg/kg; remark: listed apart in the source
[30] = in vivo; conditions: male, CD-1(ICR), mouse, po, 10 mg/kg; remark: listed apart in the source
Description: MRTinfinity in male CD-1(ICR) mouse at 10 mg/kg, po measured after 1440 mins by LC-MS/MS analysis

[31] = in vitro; conditions: mouse, hepatocytes
[32] = in vivo; conditions: male, CD-1(ICR), mouse, po, 10 mg/kg; remark: listed apart in the source
[33] = mouse, in vivo, iv, 1 mg/kg, 24 h
[34] = Toxicity in female BALB/C mouse model implanted with mouse CT26 cells assessed as body weight gain at 10 mg/kg, po administered via gavage once daily and measured after 14 days; type: organism-based; conditions: in vivo, 336 h, time 14 day
[35] = in vivo; conditions: male, CD-1(ICR), mouse, po, 10 mg/kg; remark: listed apart in the source
Description: AUClast in male CD-1(ICR) mouse at 10 mg/kg, po measured after 1440 mins by LC-MS/MS analysis

[36] = in vivo; conditions: male, CD-1(ICR), mouse, iv, 1 mg/kg; remark: listed apart in the source
Description: AUClast in male CD-1(ICR) mouse at 1 mg/kg, iv measured after 1440 mins by LC-MS/MS analysis

[37] = in vitro; conditions: rhesus monkey, hepatocytes
[38] = Protein binding in Beagle dog plasma assessed as unbound fraction at 5 uM incubated for 5 hrs by equilibrium dialysis based LC-MS analysis
[39] = mouse, in vivo, po, 10 mg/kg, 24 h
[40] = Protein binding in cynomolgus monkey plasma assessed as unbound fraction at 5 uM incubated for 5 hrs by equilibrium dialysis based LC-MS analysis
[41] = in vivo; conditions: male, CD-1(ICR), mouse, iv, 1 mg/kg; remark: listed apart in the source
Description: MRTinfinity in male CD-1(ICR) mouse at 1 mg/kg, iv measured after 1440 mins by LC-MS/MS analysis

[42] = Metabolic stability in rat hepatocytes assessed as hepatic extraction ratio at 2 uM measured up to 120 mins by LC-MS/MS analysis
[43] = rhesus monkey, hepatocytes, 2 h, 2 µM
[44] = Metabolic stability in monkey hepatocytes assessed as hepatic extraction ratio at 2 uM measured up to 120 mins by LC-MS/MS analysis; conditions: rhesus monkey
[45] = target: E3 ubiquitin-protein ligase CBL-B (Homo sapiens, UniProt Q13191); test: Binding affinity to Cbl-b (unknown origin) assessed as inhibition constant incubated for 60 mins by TR-FRET assay
E3 ubiquitin-protein ligase CBL-B, sequence (Q13191 whole entry): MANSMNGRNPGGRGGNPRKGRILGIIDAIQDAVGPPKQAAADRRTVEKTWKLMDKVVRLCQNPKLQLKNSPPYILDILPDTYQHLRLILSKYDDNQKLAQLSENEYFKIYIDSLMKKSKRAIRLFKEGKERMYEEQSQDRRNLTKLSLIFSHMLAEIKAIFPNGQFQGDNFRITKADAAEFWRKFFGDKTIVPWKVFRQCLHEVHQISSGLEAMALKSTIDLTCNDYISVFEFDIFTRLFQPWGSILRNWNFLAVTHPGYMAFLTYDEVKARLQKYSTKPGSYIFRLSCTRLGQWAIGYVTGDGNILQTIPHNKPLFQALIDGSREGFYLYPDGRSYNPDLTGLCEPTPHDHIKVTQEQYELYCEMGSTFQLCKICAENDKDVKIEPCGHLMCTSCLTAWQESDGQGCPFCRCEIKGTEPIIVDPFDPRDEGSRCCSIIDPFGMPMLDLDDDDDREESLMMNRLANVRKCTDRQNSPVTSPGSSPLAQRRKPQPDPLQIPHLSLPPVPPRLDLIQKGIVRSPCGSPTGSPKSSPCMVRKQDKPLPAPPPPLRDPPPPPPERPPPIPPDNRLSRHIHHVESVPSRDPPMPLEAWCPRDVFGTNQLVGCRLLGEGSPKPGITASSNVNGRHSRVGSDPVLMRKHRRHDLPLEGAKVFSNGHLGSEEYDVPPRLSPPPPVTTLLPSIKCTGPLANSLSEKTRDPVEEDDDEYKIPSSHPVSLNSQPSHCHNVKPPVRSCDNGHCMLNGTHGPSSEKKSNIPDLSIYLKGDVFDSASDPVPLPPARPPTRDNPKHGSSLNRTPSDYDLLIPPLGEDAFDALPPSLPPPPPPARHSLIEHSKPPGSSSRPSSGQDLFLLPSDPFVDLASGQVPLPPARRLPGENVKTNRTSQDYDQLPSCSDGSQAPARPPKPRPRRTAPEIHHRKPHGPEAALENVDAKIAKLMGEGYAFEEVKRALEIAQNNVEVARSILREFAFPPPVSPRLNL

[46] = Apparent permeability across basolateral to apical side in human Caco-2 cells assessed as drug recovery at 2 uM incubated for 2 hrs by LC-MS/MS analysis
[47] = Metabolic stability in human hepatocytes assessed as hepatic extraction ratio at 2 uM measured up to 120 mins by LC-MS/MS analysis
[48] = Metabolic stability in mouse hepatocytes assessed as hepatic extraction ratio at 2 uM measured up to 120 mins by LC-MS/MS analysis
[49] = Metabolic stability in dog hepatocytes assessed as hepatic extraction ratio at 2 uM measured up to 120 mins by LC-MS/MS analysis
[50] = in vitro; conditions: human, Caco-2
[51] = Apparent permeability across basolateral to apical side in human Caco-2 cells at 2 uM incubated for 2 hrs by LC-MS/MS analysis
[52] = Apparent permeability across apical to basolateral side in human Caco-2 cells at 2 uM incubated for 2 hrs by LC-MS/MS analysis
[53] = human, hepatocytes, 2 h, 2 µM
[54] = Apparent permeability across apical to basolateral side in human Caco-2 cells assessed as drug recovery at 2 uM incubated for 2 hrs by LC-MS/MS analysis
[55] = rat, hepatocytes, 2 h, 2 µM
[56] = mouse, hepatocytes, 2 h, 2 µM
[57] = test system: CT26; test: Antitumor activity against mouse CT26 cells implanted in female BALB/C mouse model assessed as tumor growth inhibition at 50 mg/kg, po administered via gavage once daily and measured after 14 days relative to control; conditions: 336 h, read-out: TGI

- AUC(0-inf) at 24 h [2]: 796 ng·h/mL
- EC50 [3]: 0.0657 µM
- Cmax at 24 h [4]: 480 ng/mL
- fraction unbound at 5 h, 5 µM [5]: 0.0419
- Vd at 24 h [6]: 2.91 L/kg
- fraction unbound at 5 h, 5 µM [7]: 0.0419
- fraction unbound at 5 h, 5 µM [9]: 0.0179
- AUC(0-inf) at 24 h [10]: 292 ng·h/mL
- CLint scaled at 2 h, 2 µM [13]: 39.4 mL/min/kg
- fraction unbound at 5 h, 5 µM [14]: 0.0394
- Vd at 24 h [15]: 4.66 L/kg
- C0 at 24 h [16]: 406 ng/mL
- half-life at 24 h [17]: 55.7 min
- fraction unbound at 5 h, 5 µM [18]: 0.0379
- half-life at 2 h, 2 µM [19]: 40.7 min
- clearance at 24 h [21]: 57.8 mL/min/kg
- half-life at 2 h, 2 µM [22]: 81.8 min
- fraction unbound at 5 h, 5 µM [23]: 0.0217
- half-life at 24 h [24]: 69 min
- half-life at 2 h, 2 µM [25]: 24.1 min
- EC50 [26]: 0.17 µM
- fraction unbound at 5 h, 5 µM [27]: 0.0379
- fraction unbound at 5 h, 5 µM [28]: 0.0217
- bioavailability at 24 h [29]: 27.2%
- MRT inf at 24 h [30]: 89.4 min
- half-life at 2 h, 2 µM [31]: 14.3 min
- Tmax at 24 h [32]: 21.6 min
- %AUCextra [33]: 1.2%
- AUC(0-t) at 24 h [35]: 789 ng·h/mL
- AUC(0-t) at 24 h [36]: 289 ng·h/mL
- half-life at 2 h, 2 µM [37]: 12.2 min
- fraction unbound at 5 h, 5 µM [38]: 0.0394
- %AUCextra [39]: 0.94%
- fraction unbound at 5 h, 5 µM [40]: 0.0179
- MRT inf at 24 h [41]: 60.6 min
SMILES: C[C@H]1CCCN(Cc2cc3c(C(F)(F)F)cn(-c4cccc([C@]5(c6nncn6C)C[C@@H](C)C5)c4)c(=O)c3[nH]2)C1
- inhibition in vivo at 30 mg/kg [1]: 31.3%
- EC50 [8]: 0.0014 µM
- Activity [11]: Non-toxic
- inhibition in vivo at 10 mg/kg [12]: 12.5%
- inhibition in vivo at 30 mg/kg [20]: 56.1%
- Activity [34]: Toxic

- AUC(0-inf) at 24 h [2]: 690 ng·h/mL
- hepatic extraction ratio at 2 h, 2 µM [42]: 0.8
- EC50 [3]: 0.894 µM
- CLH [43]: 37.5 mL/min/kg
- Cmax at 24 h [4]: 629 ng/mL
- hepatic extraction ratio at 2 h, 2 µM [44]: 0.9
- fraction unbound at 5 h, 5 µM [5]: 0.0736
- Vd at 24 h [6]: 1.55 L/kg
- fraction unbound at 5 h, 5 µM [7]: 0.0736
- fraction unbound at 5 h, 5 µM [9]: 0.044
- AUC(0-inf) at 24 h [10]: 281 ng·h/mL
- CLint scaled at 2 h, 2 µM [13]: 50.8 mL/min/kg
- Ki [45]: 0.00184 µM
- fraction unbound at 5 h, 5 µM [14]: 0.078
- Vd at 24 h [15]: 1.62 L/kg
- C0 at 24 h [16]: 572 ng/mL
- half-life at 24 h [17]: 18.6 min
- recovery at 2 h, 2 µM [46]: 81.3%
- fraction unbound at 5 h, 5 µM [18]: 0.0522
- half-life at 2 h, 2 µM [19]: 39.3 min
- clearance at 24 h [21]: 59.7 mL/min/kg
- half-life at 2 h, 2 µM [22]: 46 min
- fraction unbound at 5 h, 5 µM [23]: 0.0434
- hepatic extraction ratio at 2 h, 2 µM [47]: 0.7
- half-life at 24 h [24]: 161 min
- hepatic extraction ratio at 2 h, 2 µM [48]: 0.9
- half-life at 2 h, 2 µM [25]: 5.2 min
- EC50 [26]: 0.892 µM
- fraction unbound at 5 h, 5 µM [27]: 0.0522
- fraction unbound at 5 h, 5 µM [28]: 0.0434
- hepatic extraction ratio at 2 h, 2 µM [49]: 0.9
- bioavailability at 24 h [29]: 24.6%
- MRT inf at 24 h [30]: 103 min
- half-life at 2 h, 2 µM [31]: 10.4 min
- efflux ratio at 2 h, 2 µM [50]: 18
- Tmax at 24 h [32]: 19.8 min
- %AUCextra [33]: 1.18%
- Papp B→A at 2 h, 2 µM [51]: 35.8 ×10⁻⁶ cm/s
- Papp A→B at 2 h, 2 µM [52]: 1.98 ×10⁻⁶ cm/s
- CLH [53]: 14.3 mL/min/kg
- recovery at 2 h, 2 µM [54]: 101%
- CLH [55]: 25.2 mL/min/kg
- AUC(0-t) at 24 h [35]: 661 ng·h/mL
- AUC(0-t) at 24 h [36]: 277 ng·h/mL
- half-life at 2 h, 2 µM [37]: 9.3 min
- fraction unbound at 5 h, 5 µM [38]: 0.078
- %AUCextra [39]: 4.76%
- fraction unbound at 5 h, 5 µM [40]: 0.044
- CLH [56]: 79.8 mL/min/kg
- MRT inf at 24 h [41]: 26.4 min
SMILES: C[C@H]1CCCN(Cc2cc3c(c(C(F)(F)F)c2)CN(c2cccc([C@]4(c5nncn5C)C[C@@H](C)C4)c2)C3=O)C1
- EC50 [8]: 0.0268 µM
- Activity [11]: Non-toxic

- AUC(0-inf) at 24 h [2]: 293 ng·h/mL
- Cmax at 24 h [4]: 77.9 ng/mL
- Vd at 24 h [6]: 3.19 L/kg
- AUC(0-inf) at 24 h [10]: 205 ng·h/mL
- Vd at 24 h [15]: 4.82 L/kg
- C0 at 24 h [16]: 395 ng/mL
- half-life at 24 h [17]: 40.8 min
- clearance at 24 h [21]: 82.1 mL/min/kg
- half-life at 24 h [24]: 140 min
- bioavailability at 24 h [29]: 27.2%
- MRT inf at 24 h [30]: 253 min
- Tmax at 24 h [32]: 120 min
- %AUCextra [33]: 1.18%
- AUC(0-t) at 24 h [35]: 243 ng·h/mL
- AUC(0-t) at 24 h [36]: 202 ng·h/mL
- %AUCextra [39]: 14.2%
- MRT inf at 24 h [41]: 39.6 min
SMILES: C[C@H]1CCCN(Cc2cc3c(C4CC4)cn(-c4cccc([C@]5(c6nncn6C)C[C@@H](C)C5)c4)c(=O)c3[nH]2)C1
- inhibition in vivo at 50 mg/kg [57]: 51%
